Measured values from US12403154B2, “Administration of sting agonist and checkpoint inhibitors” (Takeda Pharmaceutical Company Limited, priority 2019, dated 2025).

Legend:
Assay type in all cases: in vivo
[1] = test system: RM-1 mouse prostate carcinoma cell line; assay: RM-1 mouse syngeneic tumor model (Study 4); conditions: RM-1 model; vs PBS; time-to-progression (tumor 1000 mm^3); Compound No. 14 0.25 mg/kg IV Day 0, 3, 6; anti-mPD-1 10 mg/kg IP Day 0, 3, 6, 13
Procedure: RM-1 Study 4: RM-1 is a mouse prostate carcinoma cell line. RM-1 mouse syngeneic tumor model was generated by subcutaneous inoculation with 0.8×10^6 RM-1 cells (cell suspension) in 10 weeks old female C57BL/6 mice (Vital River Laboratory Animal Technology Co., Ltd., Beijing, China) in the flank. When the mean tumor volume reached approximately 60 mm^3, the animals were randomized into one vehicle control and four treatment groups (n=10/group). Mice were then dosed with PBS or Compound No. 14 or anti-mouse PD-1 antibody or Compound No. 14 plus anti-mouse PD-1 antibody over a 19-day period. Tumor growth and body weight were measured twice per week during the treatment and post-treatment periods, and mice were humanely euthanized once they had reached their humane endpoint. […]
(§1) Tumors were measured twice weekly using vernier calipers. Tumor volumes were calculated using standard equation: V=W^2×L/2, where V=volume, W=width, and L=length for the tumor. […] Tumor size and body weight were measured twice a week for the duration of the study. […]
(§2) After the transformation, linear interpolation was used to estimate the time (in days) since randomization each mouse's tumor volume reaches 1000 mm^3. […] In case of a mouse's tumor having not reached 1000 mm^3 at the end of study, the last day the mouse was on study was recorded and right-censored. […]

[2] = test system: L5178-R mouse lymphoma cell line; assay: L5178-R mouse syngeneic tumor model (Study 2); conditions: vs PBS, time-to-progression (tumor 1000 mm^3), Compound No. 14 0.25 mg/kg IV Day 0, 3, 6, anti-mPD-1 10 mg/kg IP Day 0, 3, 6
Procedure: L5178-R Study 2: L5178-R is a mouse lymphoma cell line. L5178-R mouse syngeneic tumor model was generated by subcutaneous inoculation with 0.2×10^6 L5178-R cells (cell suspension) in approximately 12 weeks old female DBA/2 mice (Vital River Laboratory Animal Technology Co., Ltd., Beijing, China) in the flank. When the mean tumor volume reached approximately 65 mm^3, the animals were randomized into one vehicle control and four treatment groups (n=10/group). Mice were then dosed with PBS or Compound No. 14 or anti-mouse PD-1 antibody or Compound No. 14 plus anti-mouse PD-1 antibody at 10 mg/kg (Q3D×3 & QW×3) over a 10-day period. Tumor growth and body weight were measured twice per week during the treatment and post-treatment periods, and mice were humanely euthanized once they had reached their humane endpoint. […]
as §1, §2

[3] = test system: WEHI-3 mouse myelomonocytic leukemia cell line; assay: WEHI-3 mouse syngeneic tumor model (Study 3); conditions: WEHI3 model; vs PBS; time-to-progression (tumor 1000 mm^3); Compound No. 14 0.25 mg/kg IV Day 0, 3, 6; anti-mPD-1 10 mg/kg IP Day 0, 3, 6, 13
Procedure: WEHI-3 Study 3: WEHI-3 is a mouse myelomonocytic leukemia cell line. WEHI-3 mouse syngeneic tumor model was generated by subcutaneous inoculation with 0.1×10^6 WEHI-3 cells (cell suspension) in approximately 11 weeks old female BALB/c mice (Vital River Laboratory Animal Technology Co., Ltd., Beijing, China) in the flank. When the mean tumor volume reached approximately 60 mm^3, the animals were randomized into one vehicle control and four treatment groups (n=10/group). Mice were then dosed with PBS or Compound No. 14 or anti-mouse PD-1 antibody or Compound No. 14 plus anti-mouse PD-1 antibody over a 21-day period. Tumor growth and body weight were measured twice per week during the treatment and post-treatment periods, and mice were humanely euthanized once they had reached their humane endpoint. […]
as §1, §2

[4] = test system: A20 mouse B-cell lymphoma cell line; assay: A20 mouse syngeneic tumor model (Study 1)
Procedure: A20 Study 1: A20 is a mouse B-cell lymphoma cell line. A20 mouse syngeneic tumor model was generated by subcutaneous inoculation with 0.4×10^6 A20 cells (cell suspension) in approximately 9 weeks old female BALB/c mice (Vital River Laboratory Animal Technology Co., Ltd., Beijing, China) in the flank. When the mean tumor volume reached approximately 55 mm^3, the animals were randomized into one vehicle control and three treatment groups (n=10/group). Mice were then dosed with PBS or Compound No. 14 or anti-mouse PD-1 antibody or Compound No. 14 plus anti-mouse PD-1 antibody over a 31-day period. Tumor growth and body weight were measured twice per week during the treatment and post-treatment periods, and mice were humanely euthanized once they had reached their humane endpoint. […]
as §1, §2

[5] = test system: L1210 mouse leukemia cell line; assay: L1210 mouse syngeneic tumor model (Study 5); conditions: vs PBS, time-to-progression (tumor 1000 mm^3), Compound No. 14 0.25 mg/kg IV Day 0, 3, 6, anti-mPD-1 10 mg/kg IP Day 0, 3, 6, 13
Procedure: L1210 Study 5: L1210 is a mouse leukemia cell line. L1210 mouse syngeneic tumor model was generated by subcutaneous inoculation with 0.02×10^6 L1210 cells (cell suspension) in approximately 11 weeks old female DBA/2 mice (Vital River Laboratory Animal Technology Co., Ltd., Beijing, China) in the flank. When the mean tumor volume reached approximately 50 mm^3, the animals were randomized into one vehicle control and four treatment groups (n=10/group). Mice were then dosed with PBS or Compound No. 14 or anti-mouse PD-1 antibody or Compound No. 14 plus anti-mouse PD-1 antibody over a 15-day period. Tumor growth and body weight were measured twice per week during the treatment and post-treatment periods, and mice were humanely euthanized once they had reached their humane endpoint. […]
as §1, §2

## Nc1ncnc2c1ncn2[C@@H]1O[C@@H]2COP(=O)(S)O[C@@H]3[C@H](O)[C@@H](COP(=O)(S)O[C@H]2[C@H]1F)O[C@H]3n1cc(F)c2c(=O)[nH]cnc21 (stereo partly drawn) [Compound No. 14]
[1]
  HR (Weibull): 0.425
[2]
  HR (Weibull): 0.544
[3]
  HR (Weibull): 0.0487
[4]; A20 model, vs PBS, time-to-progression (tumor 1000 mm^3), Compound No. 14 0.25 mg/kg IV Day 0, 3, 6, anti-mPD-1 10 mg/kg IP Day 0, 3, 6, 13, 20, 27
  HR (Weibull): 0.104
[4]; A20 study, 31 days, n=10/group
  complete responses: one
[5]
  HR (Weibull): 0.118
